# Data from publication PMC9415638, “Discovery of novel thiazolyl-pyrazolines as dual EGFR and VEGFR-2 inhibitors endowed with in vitro antitumor activity towards non-small lung cancer” (Journal of Enzyme Inhibition and Medicinal Chemistry, 2022).
# Read-outs that look alike come from different tables or passages of the source.
# Tests used:
# [1] = target: EGFR (Homo sapiens, UniProt P00533); assay: EGFR kinase assay (PGT-coated 96-well plates); type: biochemical; conditions: read-out: IC50 (nM) ± SEM EGFR
# EGFR, sequence (P00533 25-1210): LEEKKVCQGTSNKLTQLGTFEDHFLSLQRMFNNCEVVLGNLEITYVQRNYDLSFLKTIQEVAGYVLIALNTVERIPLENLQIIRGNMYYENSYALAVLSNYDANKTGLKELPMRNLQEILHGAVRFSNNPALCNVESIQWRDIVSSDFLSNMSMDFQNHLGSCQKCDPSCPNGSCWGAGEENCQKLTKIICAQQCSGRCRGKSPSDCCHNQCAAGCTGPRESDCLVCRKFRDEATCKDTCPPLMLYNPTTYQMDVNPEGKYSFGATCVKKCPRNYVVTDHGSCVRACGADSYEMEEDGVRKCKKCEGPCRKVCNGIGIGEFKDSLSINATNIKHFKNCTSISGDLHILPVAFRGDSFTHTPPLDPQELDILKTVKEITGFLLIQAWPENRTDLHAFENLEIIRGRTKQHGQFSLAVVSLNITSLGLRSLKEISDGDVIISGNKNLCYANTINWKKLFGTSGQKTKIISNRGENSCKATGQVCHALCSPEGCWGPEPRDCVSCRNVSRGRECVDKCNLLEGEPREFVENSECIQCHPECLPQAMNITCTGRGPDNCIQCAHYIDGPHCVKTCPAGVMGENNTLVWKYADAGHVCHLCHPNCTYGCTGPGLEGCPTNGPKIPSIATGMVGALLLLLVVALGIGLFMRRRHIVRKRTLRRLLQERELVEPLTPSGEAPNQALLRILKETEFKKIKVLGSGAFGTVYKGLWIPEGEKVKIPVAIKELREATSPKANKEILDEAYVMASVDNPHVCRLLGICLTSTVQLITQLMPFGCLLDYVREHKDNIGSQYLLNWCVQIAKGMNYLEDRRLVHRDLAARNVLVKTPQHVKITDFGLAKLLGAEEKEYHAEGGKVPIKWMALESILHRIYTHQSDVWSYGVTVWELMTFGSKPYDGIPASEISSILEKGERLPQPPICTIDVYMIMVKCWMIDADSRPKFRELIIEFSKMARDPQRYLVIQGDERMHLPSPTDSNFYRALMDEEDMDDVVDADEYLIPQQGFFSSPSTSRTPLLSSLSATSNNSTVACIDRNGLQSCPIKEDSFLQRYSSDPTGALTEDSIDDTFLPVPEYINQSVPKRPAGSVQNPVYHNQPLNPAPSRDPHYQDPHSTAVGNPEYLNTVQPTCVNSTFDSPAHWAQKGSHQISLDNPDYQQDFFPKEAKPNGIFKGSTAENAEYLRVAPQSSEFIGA
# Description: (§1) The EGFR kinase assay was carried out in 96-well plates coated with PGT (poly l-glutamic acid l-tyrosine, 4:1, Sigma Aldrich, St. Louis, MO) as previously described. IC50 values were calculated using GraphPad Prism 5. Each experiment was carried out at least three times. The VEGFR-2 kinase assay was carried out in 96-well streptavidin coated plate using recombinant human VEGFR-2/KDR ELISA kit according to manufacturer’s instructions.
# [2] = target: T1, recombinant human VEGFR-2/KDR (Homo sapiens, UniProt P35968); assay: VEGFR-2 kinase assay (VEGFR-2/KDR ELISA kit); type: biochemical; conditions: read-out: IC50 (nM) ± SEM VEGFR-2
# T1 construct: purchased
# T1 sequence (P35968 20-1356): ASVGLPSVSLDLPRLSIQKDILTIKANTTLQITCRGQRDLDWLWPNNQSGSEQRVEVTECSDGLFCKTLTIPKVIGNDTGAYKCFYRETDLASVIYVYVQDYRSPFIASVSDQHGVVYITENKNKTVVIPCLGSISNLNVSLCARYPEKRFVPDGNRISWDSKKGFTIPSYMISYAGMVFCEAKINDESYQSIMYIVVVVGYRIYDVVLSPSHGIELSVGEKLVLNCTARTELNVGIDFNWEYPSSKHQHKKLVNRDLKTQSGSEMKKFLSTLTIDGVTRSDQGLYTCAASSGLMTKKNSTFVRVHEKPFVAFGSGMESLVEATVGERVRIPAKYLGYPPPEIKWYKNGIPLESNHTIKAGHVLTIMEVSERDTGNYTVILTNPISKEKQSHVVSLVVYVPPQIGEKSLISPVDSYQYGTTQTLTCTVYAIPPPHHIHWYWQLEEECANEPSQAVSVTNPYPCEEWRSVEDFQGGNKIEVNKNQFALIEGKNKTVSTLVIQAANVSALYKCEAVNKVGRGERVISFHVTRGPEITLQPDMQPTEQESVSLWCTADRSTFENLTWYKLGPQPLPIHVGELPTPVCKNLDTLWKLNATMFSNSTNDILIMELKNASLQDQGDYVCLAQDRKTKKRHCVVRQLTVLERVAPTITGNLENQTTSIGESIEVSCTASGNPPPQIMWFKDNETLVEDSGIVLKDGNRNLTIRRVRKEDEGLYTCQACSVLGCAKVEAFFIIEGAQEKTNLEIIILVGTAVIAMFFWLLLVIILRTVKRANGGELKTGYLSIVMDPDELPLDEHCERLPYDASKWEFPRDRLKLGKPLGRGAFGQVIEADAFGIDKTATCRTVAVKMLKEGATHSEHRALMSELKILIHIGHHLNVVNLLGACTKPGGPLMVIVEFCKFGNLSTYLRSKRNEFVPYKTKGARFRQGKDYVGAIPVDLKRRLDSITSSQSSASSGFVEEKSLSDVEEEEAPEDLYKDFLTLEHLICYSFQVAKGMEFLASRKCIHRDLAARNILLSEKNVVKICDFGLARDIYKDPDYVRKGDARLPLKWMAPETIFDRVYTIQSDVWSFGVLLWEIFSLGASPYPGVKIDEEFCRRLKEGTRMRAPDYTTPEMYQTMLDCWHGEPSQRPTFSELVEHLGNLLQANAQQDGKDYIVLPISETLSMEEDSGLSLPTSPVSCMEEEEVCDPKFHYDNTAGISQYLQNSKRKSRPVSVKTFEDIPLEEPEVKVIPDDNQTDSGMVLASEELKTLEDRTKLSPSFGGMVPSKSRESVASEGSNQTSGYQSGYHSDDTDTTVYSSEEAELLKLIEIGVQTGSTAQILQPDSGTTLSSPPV
# Description: as §1
# [3] = test system: BT-549 breast cancer cells; assay: Anti-proliferative MTT assay; type: cell-based; conditions: Homo sapiens, 24 h, read-out: % Growth inhibition ± SEM BT-549
# Description: (§2) To evaluate the anti-proliferative activity of the synthesised thiazolyl-pyrazoline derivatives (7a–7d, 10a–10d, and 13a–13f), a preliminary in vitro one dose (10 µM) anticancer assay was performed. Nine cell lines derived from five tumour subpanels were examined; leukaemia (K562 and KG-1a), breast (MCF-7, BT-549 and HCC70), lung (A549 and H441), colon (HCT116) and liver (HepG2) cancer cell lines. The compounds were added at a single concentration (10 µM) and the cultures were incubated for 24 h, then the per cent growth inhibition (%GI) was calculated.
# (§3) Human leukaemia (K562 and KG-1a), breast (MCF-7, BT-549 and HCC70), lung (A549, H441, NCI-H1650 and NCI-H1975), colon (HCT116), liver (HepG2) cancer cell lines and WI-38 human lung fibroblast cell line were obtained from the American Type Culture Collection (ATCC; Manassas, VA) and were cultured in their suitable media containing 10% foetal bovine serum (FBS; Sigma-Aldrich) in a humidified atmosphere with 5% CO2 at 37 °C. Gefitinib and vandetanib were purchased from Sigma-Aldrich. All chemicals used in this study were analytical or cell-culture grade.
# (§4) Cytotoxicity was measured using the MTT assay. Human leukaemia (K562 and KG-1a), breast (MCF-7, BT-549 and HCC70), lung (A549, H441, NCI-H1650 and NCI-H1975), colon (HCT116), liver (HepG2) cancer cell lines and WI-38 human lung fibroblast cell line were plated at a density of 1 × 10^4 cells per well in 96-well plates overnight and then treated with the compounds. After 24 h treatment, 20 μL of MTT solution (2 mg/mL in phosphate-buffered saline [PBS]) was added to each well and the cells were cultured for another 4 h at 37 °C. The medium was aspirated and 150 μL DMSO was added to solubilise MTT formazan crystals. The plates were then shaken, and the optical density was determined at 570 nm using an ELISA plate reader (Model 550, Bio-Rad, Hercules, CA). At least three independent experiments were performed. The IC50 values were calculated using GraphPad Prism 5 (Version 5.01, GraphPad Software, San Diego, CA).
# [4] = test system: HCC70 breast cancer cells; assay: Anti-proliferative MTT assay; type: cell-based; conditions: Homo sapiens, 24 h, read-out: % Growth inhibition ± SEM HCC70
# Description: as §2, §3, §4
# [5] = test system: HCT116 colon cancer cells; assay: Anti-proliferative MTT assay; type: cell-based; conditions: Homo sapiens, HCT-116, 24 h, read-out: % Growth inhibition ± SEM HCT116
# Description: as §2, §3, §4
# [6] = test system: HepG2 liver cancer cells; assay: Anti-proliferative MTT assay; type: cell-based; conditions: Homo sapiens, 24 h, read-out: % Growth inhibition ± SEM HepG2
# Description: as §2, §3, §4
# [7] = test system: K562 leukaemia cells; assay: Anti-proliferative MTT assay; type: cell-based; conditions: Homo sapiens, 24 h, read-out: % Growth inhibition ± SEM K562
# Description: as §2, §3, §4
# [8] = test system: KG-1a leukaemia cells; assay: Anti-proliferative MTT assay; type: cell-based; conditions: Homo sapiens, 24 h, read-out: % Growth inhibition ± SEM KG-1a
# Description: as §2, §3, §4
# [9] = test system: MCF-7 breast cancer cells; assay: Anti-proliferative MTT assay; type: cell-based; conditions: Homo sapiens, MCF7, 24 h, read-out: % Growth inhibition ± SEM MCF-7
# Description: as §2, §3, §4
# [10] = test system: WI-38 human lung fibroblast cells; assay: MTT cytotoxicity assay on normal cells; type: cell-based; conditions: Homo sapiens, WI-38; normal lung fibroblasts, MTT, 24 h, n = 3; read-out: IC50 (µM) ± SEM WI-38
# Description: All chemicals used in this study were analytical or cell-culture grade.
# Cytotoxicity was measured using the MTT assay. […] The medium was aspirated and 150 μL DMSO was added to solubilise MTT formazan crystals. The plates were then shaken, and the optical density was determined at 570 nm using an ELISA plate reader (Model 550, Bio-Rad, Hercules, CA). At least three independent experiments were performed.
# [11] = test system: A549 lung cancer cells; assay: Anti-proliferative MTT assay; conditions: Homo sapiens, A549, 24 h; for inhibition at 10 µM: read-out: % Growth inhibition ± SEM A549; for IC50: read-out: IC50 (µM) ± SEM A549
# [12] = test system: H441 lung cancer cells; assay: Anti-proliferative MTT assay; conditions: for inhibition at 10 µM: read-out: % Growth inhibition ± SEM H441
# [13] = Homo sapiens, NCI-H441, 24 h, read-out: IC50 (µM) ± SEM H441, MTT, 24 h, n = 3
SMILES,IC50 [1] [nM],IC50 [2] [nM],melting point [°C],IC50 [11] [µM],"IC50 [12, 13] [µM]","IC50 ([12]; read-out: IC50 (µM) ± SEM H441, MTT, 24 h, n = 3) [µM]",inhibition at 10 µM [3] [%],inhibition at 10 µM [4] [%],inhibition at 10 µM [5] [%],inhibition at 10 µM [6] [%],inhibition at 10 µM [7] [%],inhibition at 10 µM [8] [%],inhibition at 10 µM [9] [%],IC50 [10] [µM],inhibition at 10 µM [11] [%],"inhibition at 10 µM ([12]; Homo sapiens, NCI-H441, 24 h) [%]"
"COc1ccc(C2CC(c3ccc(Cl)cc3Cl)=NN2c2nc(-c3ccccc3)cs2)cc1 (stereo not shown) [Compound 7a, 2-(3-(2,4-Dichlorophenyl)-5-(4-methoxyphenyl)-4,5-dihydro-1H-pyrazol-1-yl)-4-phenylthiazole]",145 ± 2,125 ± 1.4,72 to 75,22.5 ± 1.2,38.4 ± 2.3,–,26.4 ± 3.6,27.3 ± 1,0.5 ± 0.1,0.5,14.2 ± 2.1,18.4 ± 1.3,0.07,88.2 ± 4.2,34.9 ± 4.3,36.1 ± 2.1
"COc1ccc(C2CC(c3ccc(Cl)cc3Cl)=NN2c2nc(-c3ccc(Cl)cc3)cs2)cc1 (stereo not shown) [Compound 7b, 4-(4-Chlorophenyl)-2-(3-(2,4-dichlorophenyl)-5-(4-methoxyphenyl)-4,5-dihydro-1H-pyrazol-1-yl)thiazole]",114.2 ± 0.4,195 ± 4.6,140 to 141,12 ± 0.4,26.5 ± 1.1,–,5.2 ± 1,19.6 ± 0.3,18.8 ± 1.9,34.4 ± 1.4,21.5 ± 3,21.7 ± 4.6,25.9 ± 1.2,60.6 ± 3.1,45.2 ± 2.9,35.2 ± 1.2
"COc1ccc(C2CC(c3ccc(Cl)cc3Cl)=NN2c2nc(-c3ccccc3)cs2)cc1OC (stereo not shown) [Compound 7c, 2-(3-(2,4-Dichlorophenyl)-5-(3,4-dimethoxyphenyl)-4,5-dihydro-1H-pyrazol-1-yl)-4-phenylthiazole]",511.2 ± 3.2,915.2 ± 4.3,120 to 122,> 100,> 100,–,3.1 ± 0.6,7.3 ± 1.2,4.9 ± 0.8,17.1 ± 2.7,5.2 ± 0.5,4.3 ± 0.7,9.2 ± 0.9,> 100,8.9 ± 1.1,16.2 ± 0.3
"COc1ccc(C2CC(c3ccc(Cl)cc3Cl)=NN2c2nc(-c3ccc(Cl)cc3)cs2)cc1OC (stereo not shown) [Compound 7d, 4-(4-Chlorophenyl)-2-(3-(2,4-dichlorophenyl)-5-(3,4-dimethoxyphenyl)-4,5-dihydro-1H-pyrazol-1-yl)thiazole]",132.9 ± 1.2,186 ± 2.3,158 to 159,20.2 ± 2,29.1 ± 3.5,–,18 ± 2.7,17.3 ± 0.6,0.7,5.1 ± 1,22 ± 1.6,25.1 ± 2,2.2 ± 0.6,40.1 ± 2.7,31.2 ± 1.4,34.8 ± 2.4
"COc1cc2c(Nc3ccc(Br)cc3F)ncnc2cc1OCC1CCN(C)CC1 [Vandetanib, reference compound]",–,–,–,3.4 ± 1,3.9 ± 0.8,–,–,–,–,–,–,–,–,8.6 ± 0.4,–,–

# More lines, main results first:
IC50 [1] [nM],IC50 [2] [nM],melting point [°C],IC50 [11] [µM],"IC50 [12, 13] [µM]","IC50 ([12]; read-out: IC50 (µM) ± SEM H441, MTT, 24 h, n = 3) [µM]",SMILES,inhibition at 10 µM [3] [%],inhibition at 10 µM [4] [%],inhibition at 10 µM [5] [%],inhibition at 10 µM [6] [%],inhibition at 10 µM [7] [%],inhibition at 10 µM [8] [%],inhibition at 10 µM [9] [%],IC50 [10] [µM],inhibition at 10 µM [11] [%],"inhibition at 10 µM ([12]; Homo sapiens, NCI-H441, 24 h) [%]"
274 ± 2.3,450 ± 8.3,205 to 207,49.1 ± 3.2,> 100,–,"COc1ccc(C2CC(c3ccc(Cl)cc3Cl)=NN2c2nc(C)c(C(C)=O)s2)cc1 (stereo not shown) [Compound 10a, 1-(2-(3-(2,4-Dichlorophenyl)-5-(4-methoxyphenyl)-4,5-dihydro-1H-pyrazol-1-yl)-4-methylthiazol-5-yl)ethan-1-one]",9.4 ± 1,24.3 ± 2.5,19 ± 2.6,28 ± 4.3,12.2 ± 1.9,22.2 ± 1.6,13.6 ± 2.9,> 100,32.3 ± 2.2,6.3 ± 0.7
130.7 ± 1.1,102 ± 4.3,195 to 197,23.5 ± 1.3,45.2 ± 2.3,–,"COc1ccc(C2CC(c3ccc(Cl)cc3Cl)=NN2c2nc(C)c(C(=O)Nc3ccccc3)s2)cc1 (stereo not shown) [Compound 10c, 2-(3-(2,4-Dichlorophenyl)-5-(4-methoxyphenyl)-4,5-dihydro-1H-pyrazol-1-yl)-4-methyl-N-phenylthiazole-5-carboxamide]",22.3 ± 0.8,18.3 ± 1.6,7.9 ± 1.1,11.9 ± 1.1,11.2 ± 1,9.1 ± 1,2.5 ± 0.8,> 100,28.9 ± 2,8.7 ± 0.1
973 ± 2,1151 ± 4.3,168 to 170,> 100,> 100,94.4 ± 5.5,"COc1ccc(C2CC(c3ccc(Cl)cc3Cl)=NN2c2nc(C)c(N=Nc3ccccc3)s2)cc1 (stereo not shown) [Compound 13a, 2-(3-(2,4-Dichlorophenyl)-5-(4-methoxyphenyl)-4,5-dihydro-1H-pyrazol-1-yl)-4-methyl-5-(phenyldiazenyl)thiazole]",10.3 ± 1.1,15.3 ± 1.4,19.5 ± 1.4,15.8 ± 2.2,2.2 ± 0.2,4.1 ± 0.9,17.8 ± 1,> 100,11 ± 0.8,22.2 ± 0.9
179,214 ± 4,170 to 171,59.1 ± 3.2,24.2 ± 1.8,–,"COc1ccc(C2CC(c3ccc(Cl)cc3Cl)=NN2c2nc(C)c(N=Nc3ccc(C)cc3)s2)cc1 (stereo not shown) [Compound 13b, 2-(3-(2,4-Dichlorophenyl)-5-(4-methoxyphenyl)-4,5-dihydro-1H-pyrazol-1-yl)-4-methyl-5-(p-tolyldiazenyl)thiazole]",5.1 ± 0.3,8.3 ± 0.9,0.8 ± 0.2,0.08,11 ± 0.6,7.1 ± 0.2,3.4 ± 0.5,> 100,16.2 ± 1.3,23.3 ± 2.4
